Results reported in patent US4803272A (priority 1987, dated 1989).
Counter-ions that a name gives are not always drawn.

Tests used:
[1] = test system: vesicular stomatitis virus [VSV], New Jersey strain; type: cell-based; conditions: without interferon; Maden-Darby bovine kidney cells
spermidine synthase = biological target: T1, spermidine synthase (Homo sapiens, UniProt P19623); assay: Spermidine synthase inhibiting activity; type: biochemical; conditions: pH 8.2, 37°, 10 min, 20 μM decarboxylated S-adenosyl-L-methionine
T1 sequence (P19623 1-302): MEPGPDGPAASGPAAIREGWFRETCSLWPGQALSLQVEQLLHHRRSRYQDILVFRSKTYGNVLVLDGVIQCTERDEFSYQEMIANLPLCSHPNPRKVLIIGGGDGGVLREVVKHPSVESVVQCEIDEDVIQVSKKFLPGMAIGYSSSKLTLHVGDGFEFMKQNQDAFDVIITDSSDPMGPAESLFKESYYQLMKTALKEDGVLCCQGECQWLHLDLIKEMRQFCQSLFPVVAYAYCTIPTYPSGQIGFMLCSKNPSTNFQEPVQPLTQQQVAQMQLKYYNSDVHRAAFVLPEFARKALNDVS
Method: Reactions were initiated by the addition of enzyme and incubated for 10 minues at 37° . The reactions were stopped by the additions of 5 μL of 100 mM spermidine and 5 μL of a slurry of 160 mg/mL of Darco G60 in water. The mixtures were centrifuged at 10,000×g for 2 minutes and a 40 μL aliquot of the supernate counted. Blank reactions were run using zero incubation time, or omitting enzyme or putrescine.
This assay made use of the adsorption of unreacted substrate, decarboxylated S-adenosyl-L-methionine, on charcoal while leaving the product polyamine in solution.

[2] = test system: human alpha [leucocyte] interferon; conditions: mdbk cells
B16 melanoma cells = conditions: DFMO in combination with interferon; cited from earlier work
human gamma interferon = type: cell-based
human beta interferon = type: cell-based

SMILES | antiviral activity of compound by itself against VSV [1] | IC50 (spermidine synthase) | potentiation of human alpha interferon [2] | suppression of tumor growth of B16 melanoma cells (B16 melanoma cells) | potentiation of human gamma interferon (human gamma interferon) | potentiation of human beta interferon (human beta interferon) | potentiation of human alpha [leucocyte] interferon [2]
NCCCCCC(CCN)SC[C@@H]1C[C@H](n2cnc3c(N)ncnc32)[C@@H](O)[C@H]1O (relative stereo) [Example 3, 1,t-(9-adenyl)-2,c-3,c-dihydroxy-4,t-[2-thia-3-(2-aminoethyl)-8-aminooctyl]cyclopentane hydrochloride] | no antiviral activity | 2 µM | 2 × |  |  |  | 
NCCC[C@](N)(C(=O)O)C(F)F [DFMO, α-difluoromethyl ornithine] |  |  |  | total or near total suppression |  |  | 
NCCCCCC(CCN)SCCOCn1cnc2c(N)ncnc21 (stereo not shown) [Example 1, 9-[2-oxa-5-thia-6-(2-aminoethyl)-11-aminoundecyl]-6-aminopurine] | no antiviral activity | ~100 µM | 8 × |  | 4 × | 16 × | 2 ×
